Laboratory results reported in patent US10597388B2, “Pyridazinone herbicides” (FMC CORPORATION, priority 2014, dated 2020).

Tests used:
Assay in all cases: Test D controlled growth environment herbicide test, pre- and postemergence
Type in all cases: in vivo
[1] = tested on: barley, spring (spring barley, Hordeum vulgare)
From the text: (§1) Seeds of plant species selected from bluegrass (annual bluegrass, Poa annua), blackgrass (Alopecurus myosuroides), Canada thistle (Cirsium arvense), canarygrass (Phalaris minor), chickweed (common chickweed, Stellaria media), geranium, cutleaf (cutleaf geranium, Geranium dissectum), galium (catchweed bedstraw, Galium aparine), bromegrass, downy (downy bromegrass, Bromus tectorum), field poppy (Papaver rhoeas), field violet (Viola arvensis), foxtail, green (green foxtail, Setaria viridis), deadnettle (henbit deadnettle, Lamium amplexicaule), ryegrass, Italian (Italian ryegrass, Lolium multiflorum), kochia (Kochia scoparia), lambsquarters (Chenopodium album), oilseed rape (Brassica napus), pigweed (Amaranthus retroflexus), chamomile (scentless chamomile, Matricaria inodora), Russian thistle (Salsola kali), speedwell (bird's-eye speedwell, Veronica persica), barley, spring (spring barley, Hordeum vulgare), wheat, spring (spring wheat, Triticum aestivum), buckwheat, wild (wild buckwheat, Polygonum convolvulus), mustard, wild (wild mustard, Sinapis arvensis), oat, wild (wild oat, Avena fatua), radish, wild (wild radish, Raphanus raphanistrum), windgrass (Apera spica-venti), barley, winter (winter barley, Hordeum vulgare), and wheat, winter (winter wheat, Triticum aestivum) were planted into a silt loam soil and treated preemergence with test chemicals formulated in a non-phytotoxic solvent mixture which included a surfactant.
(§2) At the same time, these species were planted in pots containing Redi-Earth® planting medium (Scotts Company, 14111 Scottslawn Road, Marysville, Ohio 43041) comprising spaghnum peat moss, vermiculite, wetting agent and starter nutrients and treated with postemergence applications of the test chemicals formulated in the same manner. Plants ranged in height from 2 to 18 cm (1- to 4-leaf stage). Treated plants and controls were maintained in a controlled growth environment for 14 to 21 d after which time all species were compared to controls and visually evaluated. Plant response ratings, summarized in Table D, are based on a scale of 0 to 100 where 0 is no effect and 100 is complete control. A dash (-) response means no test result.

[2] = tested on: barley, winter (winter barley, Hordeum vulgare)
From the text: as §1, §2

[3] = tested on: bluegrass (annual bluegrass, Poa annua)
From the text: as §1, §2

[4] = tested on: canarygrass (Phalaris minor)
From the text: as §1, §2

[5] = tested on: chickweed (common chickweed, Stellaria media)
From the text: as §1, §2

[6] = tested on: deadnettle (henbit deadnettle, Lamium amplexicaule)
From the text: as §1, §2

[7] = tested on: field poppy (Papaver rhoeas)
From the text: as §1, §2

[8] = tested on: foxtail, green (green foxtail, Setaria viridis)
From the text: as §1, §2

[9] = tested on: mustard, wild (wild mustard, Sinapis arvensis)
From the text: as §1, §2

[10] = tested on: radish, wild (wild radish, Raphanus raphanistrum)
From the text: as §1, §2

[11] = tested on: ryegrass, Italian (Italian ryegrass, Lolium multiflorum)
From the text: as §1, §2

[12] = tested on: wheat, winter (winter wheat, Triticum aestivum)
From the text: as §1, §2

[13] = tested on: windgrass (Apera spica-venti)
From the text: as §1, §2

[14] = Postemergence, 31 g ai/ha, scale 0 to 100 (0 no effect, 100 complete control)
[15] = Postemergence, 125 g ai/ha, visual rating on scale 0 (no effect) to 100 (complete control), 14 to 21 d
[16] = Postemergence, 250 g ai/ha, scale 0 to 100 (0 no effect, 100 complete control)
[17] = Preemergence, 62 g ai/ha, scale 0 to 100 (0 no effect, 100 complete control)
[18] = Preemergence, 125 g ai/ha, scale 0 to 100 (0 no effect, 100 complete control)
[19] = Preemergence, 250 g ai/ha, scale 0 to 100 (0 no effect, 100 complete control)
[20] = postemergence, 62 g ai/ha, scale 0 to 100, 0 no effect, 100 complete control

Compound: COC(=O)Oc1c(C)nn(C)c(=O)c1-c1c(C)sc2c(C)cc(C)cc12 [Compound 81]
- Barley, Spring plant response rating [1, 14]: 0
- Plant response rating, Barley, Spring [1, 15]: 0
- Plant response rating, Barley, Spring [1, 16]: 10
- Plant response rating (scale of 0 to 100), Barley, Spring ([1]; Preemergence, 31 g ai/ha): 0
- Plant response rating, Barley, Spring [1, 17]: 0
- Plant response rating, Barley, Spring [1, 18]: 0
- Plant response rating, Barley, Spring [1, 19]: 5
- Plant response rating, Barley, Spring [1, 20]: 0
- Barley, Winter plant response rating [2, 14]: 0
- Plant response rating, Barley, Winter [2, 15]: 0
- Plant response rating, Barley, Winter [2, 16]: 10
- Plant response rating (scale of 0 to 100), Barley, Winter ([2]; Preemergence, 31 g ai/ha): 0
- Plant response rating, Barley, Winter [2, 17]: 0
- Plant response rating, Barley, Winter [2, 18]: 45
- Plant response rating, Barley, Winter [2, 19]: 45
- Plant response rating, Barley, Winter [2, 20]: 0
- Bluegrass plant response rating [3, 14]: 5
- Plant response rating, Bluegrass [3, 15]: 30
- Plant response rating, Bluegrass [3, 16]: 40
- Plant response rating (scale of 0 to 100), Bluegrass ([3]; Preemergence, 31 g ai/ha): 0
- Plant response rating, Bluegrass [3, 17]: 10
- Plant response rating, Bluegrass [3, 18]: 20
- Plant response rating, Bluegrass [3, 19]: 60
- Plant response rating, Bluegrass [3, 20]: 20
- Canarygrass plant response rating [4, 14]: 75
- Plant response rating, Canarygrass [4, 15]: 95
- Plant response rating, Canarygrass [4, 16]: 100
- Plant response rating (scale of 0 to 100), Canarygrass ([4]; Preemergence, 31 g ai/ha): 75
- Plant response rating, Canarygrass [4, 17]: 65
- Plant response rating, Canarygrass [4, 18]: 95
- Plant response rating, Canarygrass [4, 19]: 100
- Plant response rating, Canarygrass [4, 20]: 85
- Chickweed plant response rating [5, 14]: 100
- Plant response rating, Chickweed [5, 15]: 100
- Plant response rating, Chickweed [5, 16]: 100
- Plant response rating (scale of 0 to 100), Chickweed ([5]; Preemergence, 31 g ai/ha): 95
- Plant response rating, Chickweed [5, 17]: 100
- Plant response rating, Chickweed [5, 18]: 100
- Plant response rating, Chickweed [5, 19]: 100
- Plant response rating, Chickweed [5, 20]: 100
- Deadnettle plant response rating [6, 14]: 15
- Plant response rating, Deadnettle [6, 15]: 35
- Plant response rating, Deadnettle [6, 16]: 60
- Plant response rating (scale of 0 to 100), Deadnettle ([6]; Preemergence, 31 g ai/ha): 0
- Plant response rating, Deadnettle [6, 17]: 0
- Plant response rating, Deadnettle [6, 18]: 5
- Plant response rating, Deadnettle [6, 19]: 55
- Plant response rating, Deadnettle [6, 20]: 35
- Field Poppy plant response rating [7, 14]: 100
- Plant response rating, Field Poppy [7, 15]: 100
- Plant response rating, Field Poppy [7, 16]: 100
- Plant response rating (scale of 0 to 100), Field Poppy ([7]; Preemergence, 31 g ai/ha): 100
- Plant response rating, Field Poppy [7, 17]: 100
- Plant response rating, Field Poppy [7, 18]: 100
- Plant response rating, Field Poppy [7, 19]: 100
- Plant response rating, Field Poppy [7, 20]: 100
- Foxtail, Green plant response rating [8, 14]: 80
- Plant response rating, Foxtail, Green [8, 15]: 95
- Plant response rating, Foxtail, Green [8, 16]: 100
- Plant response rating (scale of 0 to 100), Foxtail, Green ([8]; Preemergence, 31 g ai/ha): 75
- Plant response rating, Foxtail, Green [8, 17]: 65
- Plant response rating, Foxtail, Green [8, 18]: 100
- Plant response rating, Foxtail, Green [8, 19]: 100
- Plant response rating, Foxtail, Green [8, 20]: 95
- Mustard, Wild plant response rating [9, 14]: 50
- Plant response rating, Mustard, Wild [9, 15]: 60
- Plant response rating, Mustard, Wild [9, 16]: 80
- Plant response rating (scale of 0 to 100), Mustard, Wild ([9]; Preemergence, 31 g ai/ha): 0
- Plant response rating, Mustard, Wild [9, 17]: 0
- Plant response rating, Mustard, Wild [9, 18]: 0
- Plant response rating, Mustard, Wild [9, 19]: 50
- Plant response rating, Mustard, Wild [9, 20]: 60
- Radish, Wild plant response rating [10, 14]: 75
- Plant response rating, Radish, Wild [10, 15]: 95
- Plant response rating, Radish, Wild [10, 16]: 100
- Plant response rating (scale of 0 to 100), Radish, Wild ([10]; Preemergence, 31 g ai/ha): 0
- Plant response rating, Radish, Wild [10, 17]: 50
- Plant response rating, Radish, Wild [10, 20]: 90
- Ryegrass, Italian plant response rating [11, 14]: 85
- Plant response rating, Ryegrass, Italian [11, 15]: 95
- Plant response rating, Ryegrass, Italian [11, 16]: 95
- Plant response rating (scale of 0 to 100), Ryegrass, Italian ([11]; Preemergence, 31 g ai/ha): 55
- Plant response rating, Ryegrass, Italian [11, 17]: 65
- Plant response rating, Ryegrass, Italian [11, 18]: 85
- Plant response rating, Ryegrass, Italian [11, 19]: 100
- Plant response rating, Ryegrass, Italian [11, 20]: 90
- Wheat, Winter plant response rating [12, 14]: 0
- Plant response rating, Wheat, Winter [12, 15]: 5
- Plant response rating, Wheat, Winter [12, 16]: 5
- Plant response rating (scale of 0 to 100), Wheat, Winter ([12]; Preemergence, 31 g ai/ha): 0
- Plant response rating, Wheat, Winter [12, 17]: 0
- Plant response rating, Wheat, Winter [12, 18]: 5
- Plant response rating, Wheat, Winter [12, 19]: 5
- Plant response rating, Wheat, Winter [12, 20]: 0
- Windgrass plant response rating [13, 14]: 70
- Plant response rating, Windgrass [13, 15]: 90
- Plant response rating, Windgrass [13, 16]: 95
- Plant response rating (scale of 0 to 100), Windgrass ([13]; Preemergence, 31 g ai/ha): 60
- Plant response rating, Windgrass [13, 17]: 75
- Plant response rating, Windgrass [13, 18]: 90
- Plant response rating, Windgrass [13, 19]: 100
- Plant response rating, Windgrass [13, 20]: 80
